Measurements from patent publication US11921020B2, “Method of purifying tumor cells using shear stress” (UNIVERSITY OF IOWA RESEARCH FOUNDATION, priority 2011, dated 2024).

Tests used:
[1] = test system: PC-3 cells; assay: Fluid shear stress protocol (repeated passage through 30 gauge needle), cell viability; format: cell-based, human; conditions: for shear stress resistance of cells in PBS supplemented with the cation: 88 mM final concentration, n=1
Experimental: (§1) 5 mL of a 5×10^5 cell/mL suspension was placed into 10 mL glass beaker (Pyrex) and loaded into a 5 mL syringe (BD Biosciences #309603) by slowly drawing the cells into the syringe manually. A 30 gauge needle (BD Biosciences #305106) was then attached to the syringe and cells were pushed through at a constant flow rate by one of two methods:
Syringe Pump: A Harvard Apparatus PHD-2000 Infuse/Withdraw syringe pump was calibrated for the syringes being used and set to the appropriate flow rate (see Table I). After securing the syringe to the pump housing, a 6-inch small bore extension set (Smiths Medical MX448L) was used to connect the syringe and needle. The 10 mL beaker was secured at a 45-degree angle and the needle rested gently (without damaging the bevel) at the bottom of the beaker. The pump is then turned on and the cell suspension was collected into the beaker. The bore extension, still connected to the needle, was then removed from the syringe, and the syringe was removed from the pump. The cell suspension was re-loaded into the syringe as described above. In a standard assay, this process was repeated until cells have been passaged a total of ten times (control experiments were taken out to 15 passages). After each passage, 100 μL aliquots of cell suspension were removed from the glass beaker in duplicate for viability assays (described below). For non-shear stress treated control, cells which have been in suspension for the entire duration of the assay were aliquoted and treated as 100% viability controls.
(§2) 250 μL/sec flow rate: This is the most commonly used flow rate throughout this example. To facilitate throughput, some experiments at 250 μL/sec were done manually. Here, cell suspensions were prepared as above with one exception: the small bore extension was not used, rather the needle was directly secured to the syringe. Suspensions were pushed through the needle by hand and collected into a 10 mL glass beaker. To control the flow rate using this approach, a timer was zeroed before each needle passage and the time taken to push a given volume through the needle was measured. At each passage, the volume in milliliters was divided by the time in seconds to give flow rate in mL/sec. Data for figures was only obtained from shear stress assays in which the average flow rate over 10 passages was ±10 μL/sec of the targeted 250 μL/sec. […] Further, to assure reproducibility, most assays were repeated ten times or more.
Bioluminescence Imaging (BLI): 100 μL aliquots of shear stress-treated cells or control cells (those sitting in suspension through the duration of shear treatment) were loaded into a black 96 well plate (Costar) in duplicate. Each well was then diluted to 200 μL at final concentration of 150 μg/mL D-luciferin (Promega) using a multichannel pipette. Plates were incubated for 5 minutes at room temperature and then imaged for 5 minutes in an IVIS-100 (Xenogen). Bioluminescence measurements were collected using Living Image 2.50.1 software (Igor Pro). The photon flux of shear treated cells was divided by that of control cells to give % viability. All figures with BLI-derived viability data represent the average of at least 3 experiments.
Next, whether rearrangements of the cytoskeleton occur in response to shear stress and thereby imparts a protective advantage to cells was investigated. […]

[2] = test system: MDA.MB.231 cells; assay: as above; format: cell-based, human
Experimental: as §1
as §2, with “more. […]” for “more.”

[3] = 20 nM for one hour before shear stress protocol
[4] = brief treatment prior to shear stress protocol

SMILES | shear stress resistance of cells in PBS supplemented with the cation ([1]; 250 μL/sec) | survival curve under shear stress of cells in PBS supplemented with the cation ([1]; 250 μL/sec, calcium at same concentration as complete medium (129.4 μg/mL)) | cell death in treated cells versus DMSO treated controls after shear stress protocol [2, 3] | cell viability during pretreatment, before shear stress [2, 4] | cell death in treated cells versus DMSO treated controls after shear stress protocol [1, 3] | cell viability during pretreatment, before shear stress [1, 4]
[Ba] [barium] | equally susceptible to shear stress as cells in nominally calcium-free PBS | – | – | – | – | –
[Ca+2] [calcium] | rescues the shear stress resistance phenotype | not significantly different from the media control suspensions | – | – | – | –
C=C1[C@@H](C)[C@H]2[C@H](Cc3ccccc3)NC(=O)[C@]23[C@H](OC(C)=O)/C=C/[C@@](C)(O)C(=O)[C@@H](C)C/C=C/[C@H]3[C@@H]1O [cytochalasin-D] | – | – | over 3 fold | not affected | over 3 fold | not affected
